Data set [1] concerns Kalbserythrozyten. Put plainly: RBC test: haemolysis (release of haemoglobin, H50). It counts as cell-based, Kalb. Particulars: 10 min. The text has this:
(§1) Der Standard RBC-Test dient zur Abschätzung von in-vivo Augenschleimhautreizpotentialen von Tensiden und tensidhaltigen Produkten. Das Verfahren beruht auf der Tatsache, dass Tenside stark mit Zellmembranen und Proteinen interagieren. Beide Effekte werden photometrisch durch Analyse des natürlichen Blutfarbstoffs Oxyhämoglobin ([…]) bestimmt. Im Gegensatz zu anderen zellbasierten Systemen ist der RBC-Test in der Lage zwischen Schädigungen der Zellmembran (Hämolyse) und Proteindenaturierung (Denaturierungsindex) zu differenzieren.
Ein definiertes Aliquot isolierter Kalbserythrozyten wird mit einer Reihe steigender Konzentrationen des zu untersuchenden Musters (Stammlösung für Rohstoffe 0,1 Gew.-% Aktivgehalt der waschaktiven Substanz in PBS; Stammlösung für Fertigprodukte 1:100 w/v in PBS) für 10 Minuten unter Schütteln bei RT inkubiert. PBS ist ein üblicher Standard-PhosphatPuffer (pH 7,4) mit folgender Zusammensetzung:
Die Inkubationsperiode wird durch schnelle Hochgeschwindigkeitszentrifugation beendet. Nach Zentrifugation werden die gewonnenen Überstände photometrisch auf ihren Gehalt an freigesetztem Hämoglobin (HbO2) bei 530 nm analysiert. Daraus wird der relative Hämolysegrad berechnet und die Konzentrations-Response-Kurve mit dem H50-Wert [µl/ml] als Kenngröße bestimmt. Dieser gibt die Konzentration des Prüfmusters an, bei der 50% des Hämoglobins freigesetzt werden. Je höher der Wert, desto verträglicher ist das untersuchte Muster.

The target in another data set is T1, HbO2 (Bos taurus, UniProt P01966+P02070).
T1 construct: wird im Vergleich zum nativen HbO2 gemessen; endogenous in cells; host or cells: isolated calf erythrocytes (Kalbserythrozyten)
T1 sequence (P01966 2-142 limits assumed): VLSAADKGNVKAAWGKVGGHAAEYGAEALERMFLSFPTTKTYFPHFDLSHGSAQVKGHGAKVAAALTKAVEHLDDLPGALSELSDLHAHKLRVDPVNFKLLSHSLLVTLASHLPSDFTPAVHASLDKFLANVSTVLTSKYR
T1 sequence (P02070 whole entry): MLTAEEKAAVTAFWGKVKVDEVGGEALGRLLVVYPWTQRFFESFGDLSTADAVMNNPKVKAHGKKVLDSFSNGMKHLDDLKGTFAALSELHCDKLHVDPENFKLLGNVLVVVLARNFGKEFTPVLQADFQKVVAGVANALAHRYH
Briefly: RBC test: HbO2 denaturation (denaturation index DI). It is filed as cell-based. Particulars: raw material 0,1 Gew.-% active content in PBS, 10 min, RT; 100% standard Natriumlaurylsulfat; lower = better tolerated.
Source text: as §1
Ein definiertes Aliquot isolierter Kalbserythrozyten wird mit einer fixen Konzentration des Prüfmusters (Konzentration für Rohstoffe 0,1 Gew.-% Aktivgehalt der waschaktiven Substanz in PBS; Konzentration für Fertigprodukte 1% w/v in PBS) für 10 Minuten unter Schütteln bei RT inkubiert und dann zentrifugiert. Die Änderung der spektralen Absorption bei 575 nm und 540 nm wird im Vergleich zum nativen HbO2 gemessen. Aus dem Verhältnis der Absorptionswerte zueinander wird der Denaturierungsindex DI [%] berechnet. Als 100%-Standard dient Natriumlaurylsulfat (0,1% Aktivgehalt).
Je geringer der Wert, desto verträglicher ist das untersuchte Muster.

Data set [2] has as its system Kalbserythrozyten. It counts as cell-based, Kalb.
Source text: Die Milde eines Tensides oder Tensidsystems lässt sich durch die Bestimmung der Quotienten aus Hämolysewert und Denaturierungsindex charakterisieren. Der Quotient L/D repräsentiert das Verhältnis von Hämolysewert (L) zu Denaturierungsindex (D) und wird durch den Standard RBC-Test bestimmt.
as §1
Der Quotient (L/D-Wert) stellt das Verhältnis der Kenngrößen von Hämolyse (H50) und Denaturierung (DI) dar und wird zur Charakterisierung und Klassifizierung der untersuchten Prüfmuster verwendet.
Tenside oder Tensidmischungen werden erfindungsgemäß als mild angesehen, wenn der L/D-Wert mindestens 1 beträgt. Zum Vergleich dazu hat das häufig in Reinigungsprodukten eingesetzte Natriumlaurylethersulfat einen L/D-Wert von ca. 0,3 und wird als reizend klassifiziert. Sofern in einer Tensidmischung Natriumlaurylethersulfat eingesetzt wird, hat die resultierende Tensidmischung erfindungsgemäß einen L/D-Wert von mindestens 1.

Turning to Decylglucosid, the H50 in the data set with Kalbserythrozyten [1] (bovine, pH 7.4) is 127,7 µl/ml. In addition, the DI at HbO2 is 3,9%. The L/D in the data set on Kalbserythrozyten [2] is on record as 33,4.

For PEG-7 Glycerylcocoat, the H50 in the data set with Kalbserythrozyten [1] (bovine, pH 7.4) is 115,2 µl/ml. Also, the DI on HbO2 is listed as 4,9%. Besides, the L/D in the data set on Kalbserythrozyten [2] is given as 23,5.

As for Dinatriumcocoylglutamat, the H50 in the data set on Kalbserythrozyten [1] (bovine, pH 7.4) was 136,6 µl/ml. The DI at HbO2 is 77,9%. Further, the L/D in the data set on Kalbserythrozyten [2] was 1,75.

In the case of `CCCCCCCCCCCC(=O)N(C)CC(=O)O` [Natriumlauroylsarcosinat], the H50 in the data set with Kalbserythrozyten [1] (raw material, stock 0,1 Gew.-% active content in PBS, RT, higher = better tolerated) is 458 µl/ml. In addition, the DI at HbO2 was 58,4%. In addition, the L/D in the data set on Kalbserythrozyten [2] is on record as 7,84.

On to “Dinatrium PEG-5 Laurylcitratsulfosuccinat”, for which, in the data set on Kalbserythrozyten [1] (bovine, pH 7.4), the H50 amounted to 645 µl/ml. Also, the DI at HbO2 was 5,5%. Further, the L/D in the data set with Kalbserythrozyten [2] came out at 117.

For Cocamidopropylbetain, the H50 with Kalbserythrozyten [1] (bovine, pH 7.4) was 56,1 µl/ml. Moreover, the DI on HbO2 was 2,6%. Moreover, in the data set on Kalbserythrozyten [2], the L/D is given as 21,65.

Regarding Dinatriumlaurylethersulfosuccinat, the H50 with Kalbserythrozyten [1] (bovine, pH 7.4) is 167,7 µl/ml. Besides, the DI at HbO2 was 40,4%. For the same compound, in the data set on Kalbserythrozyten [2], the L/D is reported as 4,15.

In the data set on Kalbserythrozyten [1] (bovine, pH 7.4), Natriumcocoamphoacetat gave an H50 of 26 µl/ml. Besides, the DI on HbO2 amounted to 1%. Besides, the L/D in the data set with Kalbserythrozyten [2] was found to be 26.

For the compound Laurylglucosid, the H50 in the data set on Kalbserythrozyten [1] (bovine, pH 7.4) is recorded as 84,1 µl/ml. For the same compound, on HbO2, the DI is recorded as 3,2%. In the data set with Kalbserythrozyten [2], the L/D is reported as 20,4.

With Dinatriumcocoamphodiacetat, the H50 with Kalbserythrozyten [1] (bovine, pH 7.4) is reported as 36,4 µl/ml. On HbO2, the DI is 1,5%. The compound further displayed a L/D in the data set on Kalbserythrozyten [2] of 24.

`CCCCCCCCCCCC(=O)NC(CCC(=O)O)C(=O)O` (centres unmarked) [Natriumlauroylglutamat]: the H50 in the data set on Kalbserythrozyten [1] (bovine, pH 7.4) is 312,3 µl/ml. Moreover, the DI on HbO2 is 10,5%. Further, in the data set on Kalbserythrozyten [2], the L/D was 29,9.

For “Natriumlaurylethersulfat [reference compound]”, in the data set on Kalbserythrozyten [2], the “Klassifizierung nach L/D-Wert” value is recorded as “reizend” and the L/D entry is “ca. 0,3”.

The record behind these values is EP3409266A1, “ACTIVE INGREDIENT COMBINATIONS OF GLYCERYL GLUCOSIDES AND ONE OR MORE MILD SURFACTANTS” (Beiersdorf AG, priority 2010, dated 2012).
